`CSc1ccc(-c2oc3ccccc3c(=O)c2-c2ccc(C(F)(F)F)cc2)cc1` gave a melting point of 189 to 192 °C. Work on `Cc1oc(-c2cccs2)nc1COc1ccc(Cn2cc(CCC(=O)O)c(-c3ccccc3)c2)cc1` yielded a melting point of 117 to 118 °C. Work on `CCC(=Cc1cn(CC(=O)N(C)CCc2ccccc2)c2ccc(OCc3ccccc3)cc12)C(=O)O` yielded a melting point of 205 to 207 °C. For `Cc1oc2ccccc2c(=O)c1N`, the melting point was 118 to 120 °C. `Cc1ccccc1C(CCC(=O)O)Oc1cc(OCc2ccsc2)ccc1C#N` (centres undefined) showed a melting point of 143 °C. `Clc1cn2ccnc2c(Br)n1` showed a melting point of 146 to 147 °C. `CC1(c2ccccc2NC(c2c(Cl)cccc2Cl)C2CC2)OCCO1` (centres undefined) gave a melting point of 151 °C. `O[C@H]1CSC(c2ccccc2)=N[C@@H]1c1ccccc1` (racemic) gave a melting point of 142 °C. `CC1C(c2ccccc2)OP(N)(=O)N1C` (centres undefined) showed a melting point of 170 to 172 °C. Molecule `CCCOc1ccc2[nH]c(-c3cc(C)c(O)c(C)c3)c(C)c2c1` has a melting point of 124 °C. In the case of `CCCCN(CCCC)S(=O)(=O)c1ccc(-n2oc(C)cc2=O)c([N+](=O)[O-])c1`, the melting point is reported as 84 to 86 °C. Work on `O=C(O)C(NC(=O)C(F)(F)F)c1ccccc1` (centres undefined) yielded a melting point of 155 to 157 °C. `C=C=CS(=O)(=O)c1ncc(Cl)cn1` gave a melting point of 130 °C. In the case of `O=C(O)C(=O)c1ccc(OCCCc2ccc3ccccc3c2)cc1`, the melting point is reported as 123 to 124 °C. Work on `CN(C[C@H]1CC[C@H](NC(=O)OCc2ccccc2)CC1)C1CCOCC1` yielded a melting point of 81 to 84 °C. Work on `CCCCCCCCC/C=C(\C)C(=O)O` yielded a melting point of 28 to 31 °C. Work on `CCN1CC=CC2=C1N1CN(OC)C=C1N=N2` yielded a melting point of 167 to 168 °C. Work on `COC(=O)C1CCc2nc(N)sc2C1` (centres undefined) yielded a melting point of 148 to 168 °C. For `CCCCC(CC)COc1ccc(-n2c(C)cc(=O)cc2C)cc1` (centres undefined), the melting point was 143 °C. Molecule `O=C(O)C(CCc1ccccc1)CC(CCc1ccccc1)C(=O)O` (centres undefined) has a melting point of 95 to 105 °C. `CC[C@H](N)c1nc2c(C(F)(F)F)cccc2c(O)c1C(=O)Nc1nccs1` showed a melting point of 206 °C. With `COc1ccc(S(=O)(=O)C2(C(=O)O)CCN(CCc3ccccc3)CC2)cc1` the melting point was 208 °C. In the case of `CC1CC(=O)NN=C1c1ccc(N2CCN(c3ncccn3)CC2)c(N)c1` (centres undefined), the melting point is reported as 220 to 221 °C. For `Cc1nc(N)nc(N)c1/C=C/C(C)(C)c1ccc(C(F)(F)F)cc1`, the melting point was 182 to 185 °C. Work on `N#CCCNC(=O)c1cccc(-c2ccc3c(c2)N(c2cc(Cl)ccc2Cl)CC3)c1` yielded a melting point of 189 to 190 °C. Work on `C[N+]([O-])(c1cnccc1[N+](=O)[O-])n1cccc1` (centres undefined) yielded a melting point of 135 to 140 °C. With `O=C1N(c2cc(Cl)nc(Cl)c2)C(=O)C2(Cc3ccc(Br)cc3)CCCN12` (centres undefined) the melting point was 76.3 °C. `COC(=O)C(CCN(C(C)C)C(C)C)(CC(=O)N1CCCCC1)c1ccccc1Cl` (centres undefined) showed a melting point of 104 to 106 °C. `O=C(Nc1cnc2sc(CO)nc2c1)c1cc2cc(C(F)(F)F)ccc2n1Cc1nccs1` gave a melting point of 282 to 283 °C. For `COC(=O)C1CCC2C3CCC4CC(O)CCC4(C)C3C(N)CC12C` (centres undefined), the melting point was 113 to 116 °C. `N#CCCSCc1nccc(N)n1` gave a melting point of 106 to 109 °C. For `CC(C)(NC(=O)C(CS)Cc1ccccc1)C(=O)OCc1ccccc1` (centres undefined), the melting point was 53 to 56 °C. In the case of `CC(C(=O)NC1Cc2ccccc2CC1O)c1ccccc1` (centres undefined), the melting point is reported as 158 °C. In the case of `Cc1cccc(C)c1NC(=O)c1ccc(C(F)(F)F)cc1`, the melting point is reported as 206 to 207 °C. Molecule `Cc1cccc2c1NC(=O)C(NC(=O)OCc1ccccc1)N=C2c1ccccc1F` (racemic) has a melting point of 222 to 225 °C. In the case of `O=[N+]([O-])c1ccc(S(=O)(=O)Nc2ccc(F)cc2)c([N+](=O)[O-])c1`, the melting point is reported as 127 to 128 °C. Work on `Cc1ccc(S(=O)(=O)Oc2ccc(Cl)c3c2C(=O)c2cnccc2C3=O)cc1` yielded a melting point of 193 to 195 °C. In the case of `Cc1ccc(S(=O)(=O)N2CCc3ccccc3C(Oc3ccc(C(F)(F)F)cc3)C2)cc1` (centres undefined), the melting point is reported as 114 to 115 °C. `O=c1c([N+](=O)[O-])c(O)c2cccnc2n1Cc1ccccc1` showed a melting point of 182 °C. Molecule `Cc1cccc(NC(c2ccc(F)c(F)c2)c2ccc3cccnc3c2O)n1` (centres undefined) has a melting point of 162 to 165 °C. With `c1ccc2c(c1)Cc1sccc1CN2` the melting point was 86 °C. With `CC(C)[C@H](NC(=O)Cc1csc(N(C)C)n1)C(=O)N[C@@H](Cc1ccccc1)[C@@H](O)C[C@H](Cc1ccccc1)NC(=O)OCc1cncs1` the melting point was 157 to 159 °C. In the case of `CCCCN(C)c1c(-c2ccc(OC)cc2)sc2ccccc12`, the melting point is reported as 61 to 62 °C. Molecule `CC(C)C1(C)N=C(c2ccccc2C(=O)O)N(O)C1=O` (centres undefined) has a melting point of 186 to 188 °C. `Cn1cc(C2c3ccc(Cl)cc3C=Cc3sc(OCCn4ccnc4)nc32)c(=S)[nH]c1=O` (centres undefined) gave a melting point of 190 to 193 °C. `CCOC(=O)c1c(C)cc(NC(=O)CCl)c(C(=O)O)c1C` gave a melting point of 124 to 125 °C. `CC1CCN(c2ccc([N+](=O)[O-])cc2C(=O)c2ccc(Br)cc2)CC1` gave a melting point of 142 °C. `COc1cc(NC(NC(C)C(C)(C)C)=C(C#N)S(C)(=O)=O)cc(C(F)(F)F)c1` (centres undefined) showed a melting point of 110 to 113 °C. With `O=C(O)Cc1onc(-c2ccccc2)c1-c1ccccc1` the melting point was 153 to 157 °C. With `CC(C)(C)OC(=O)N(Cc1ccccc1)S(N)(=O)=O` the melting point was 127 °C. For `COc1ccc(NC(=S)NCCCn2ccnc2)cc1OC`, the melting point was 160 to 161 °C. Molecule `CC1(C)CSCC(C)(C)c2[nH]c(-c3ccccc3)nc21` has a melting point of 223 to 224 °C. With `O=C1CCOc2c1ccc(O)c2Cc1ccccc1` the melting point was 176 °C. With `OCc1cccc2nc(-c3ccccc3)sc12` the melting point was 101 to 102 °C. Molecule `O=c1c2sc3ccccc3c2oc2cc(O)cc(O)c12` has a melting point greater than 300 °C. Molecule `O=c1c(O)c(-c2ccccc2)oc2cc(O)ccc12` has a melting point of 128 °C. Work on `NC(=O)CNC(=O)c1ccc(-c2cccc3cc(COc4cccc(C(F)(F)F)c4)sc23)cc1` yielded a melting point of 164 to 165 °C. In the case of `O=C(O)Cn1c(-c2ccc(C(F)(F)F)cc2)nc2cccnc21`, the melting point is reported as 240 to 241 °C. With `NNc1ccc(S(=O)(=O)c2ccc(NN)cc2)cc1` the melting point was 179 to 183 °C. `Nc1cc(NC(=O)c2ccccc2)ccn1` gave a melting point of 187 to 188 °C. In the case of `c1ccc(NCCCCCCCNc2ccccc2)cc1`, the melting point is reported as 52 to 54 °C. With `O=P(Oc1ccccc1)(Oc1ccccc1)C1(N2CCOCC2)CCCCC1` the melting point was 103 to 106 °C. Work on `O=C(Nc1ccc(-n2nc(-c3ccoc3)cc2Cl)cc1)c1ccncc1F` yielded a melting point of 165 to 166 °C. With `N#CC(N)C(=O)c1ccc(C=O)cc1` (centres undefined) the melting point was 122 to 125 °C. In the case of `O=C1CCOc2c(O)cccc21`, the melting point is reported as 93 to 96 °C. With `CC/C=C/C(=O)NC(=O)OC(C)(C)C` the melting point was 78 to 79 °C. `CC(C)Sc1nc(-c2nn(C)c(OC(F)F)c2Cl)c(F)cc1Cl` showed a melting point of 63 to 64 °C. With `CC(=O)Oc1c(Cl)c(C(C)(C)C)oc(=O)c1-c1c(C)cc(C)cc1C` the melting point was 116 to 118 °C. `COC(=O)CCCCCNC(=O)/C=C/C=C/c1ccccc1[N+](=O)[O-]` gave a melting point of 115 to 117 °C. For `O=[N+]([O-])c1ncn(COC(CO)CO)n1`, the melting point was 132 °C. `COc1cccc(C2(O)c3c(C)c(NC(=O)CC(C)(C)C)c(C)c(C)c3OC2(C)C)c1` (centres undefined) showed a melting point of 154 to 155 °C. With `Cn1c(=O)c(C#N)c(N2CCNCC2)c2cc(F)ccc21` the melting point was 211 °C. For `S=C(NN=C(CCCCl)c1ccccc1)Nc1ccccc1`, the melting point was 107 to 109 °C. Work on `COP(=O)(Cc1cccc2cccc(CP(=O)(OC)OC)c12)OC` yielded a melting point of 168 to 170 °C. `O=C(NCNC(=O)c1ccccc1C(=O)C1CCCCC1)OCc1ccccc1` gave a melting point of 152 to 155 °C. In the case of `CCCCOC(=O)N1CCNCC1`, the melting point is reported as 98 °C. Work on `CCN1CCC(CC(=O)NOC(C)(C)C)(S(=O)(=O)c2ccc(Oc3ccccc3)cc2)CC1` yielded a melting point of 152 to 155 °C. With `CC1CC(=O)NN=C1c1ccc(NC(=O)c2cccs2)cc1` (centres undefined) the melting point was 256 to 258 °C. For `CCN1c2ncc(CCc3ccnc(CO)c3)cc2C(=O)N(C)c2ccc(Cl)nc21`, the melting point was 133 to 134 °C. `CC(C)C(NC(=O)C(F)(F)F)C(=O)O` (centres undefined) gave a melting point of 88 to 89 °C. `O=C(Cc1cccc(O)c1)NNC(=O)c1c(O)cc(O)cc1Cl` showed a melting point of 217 °C. In the case of `O=C(OC1CCCCC1)C1Oc2ccccc2Cc2ccccc2O1`, the melting point is reported as 120 to 125 °C. For `NC(=O)C(CCO)N1CCCC1=O` (centres undefined), the melting point was 164 to 165 °C. Molecule `COc1ccc(C(c2ccc(F)cc2)C(c2ccc(OC)cc2)C(F)(F)F)cc1` (centres undefined) has a melting point of 132 to 135 °C. Molecule `NC(=O)c1cc2cccc(NC(=O)c3cccs3)c2[nH]1` has a melting point of 289 to 290 °C. For `Cc1noc(NS(=O)(=O)c2ccc(NCC(=O)O)cc2-c2ccc(CC(C)C)cc2)c1C`, the melting point was 73 to 78 °C. Molecule `CCOC(=O)c1[nH]c2cc(Cl)cc(Cl)c2c1NCC(=O)c1ccccc1` has a melting point of 143 to 144 °C. With `O=C(O)CC(NS(=O)(=O)c1ccc2ccccc2c1)c1ccccc1O` (centres undefined) the melting point was 190 to 200 °C. For `COc1ccccc1N1CCN(CCCNC(=O)c2csc3c(=O)cc(C(F)(F)F)oc23)CC1`, the melting point was 170 to 177 °C. In the case of `CCOc1nn(CCOc2nn(CC)cc2CC(=O)O)cc1C(=O)NCc1ccc(Cl)cc1Cl`, the melting point is reported as 157 to 158 °C. For `Cc1nc2c3cccc(Cl)c3ccn2c1CN(C)C`, the melting point was 157 to 160 °C. `CC(=O)NC(C)CCC1CCC(n2cc3ccc(OCC4CC4)cc3n2)CC1` (centres undefined) gave a melting point of 139 to 140 °C. With `CN1c2ccccc2-c2nc3ccc(Cl)cc3c3cc(OS(=O)(=O)C(F)(F)F)cc1c23` the melting point was 193 to 195 °C. Work on `Cc1csc(N2CCN(Cc3ccc(C(F)(F)F)cc3)C2=O)n1` yielded a melting point of 102 to 103 °C. `N#Cc1cnccc1-c1c(-c2ccccc2)nn2ccccc12` gave a melting point of 208 to 210 °C. `CCOC(=O)C(OC)C(=O)Nc1cccc(Cl)c1` (centres undefined) gave a melting point of 43.5 to 46.5 °C. For `COc1cc(Br)c2c(c1OC)C(=O)CC2`, the melting point was 180 to 182 °C. Work on `COc1ccc2c(C(=S)N(C)CC(=O)O)cccc2c1SC(F)(F)F` yielded a melting point of 168 to 169 °C. Work on `C#CC(O)(c1ccccc1)c1ccc([N+](=O)[O-])cc1` (centres undefined) yielded a melting point of 88 to 89 °C. For `COc1ccc(C(=O)Nc2ccc(F)c(F)c2)cc1NCc1cccc(C(=O)O)c1`, the melting point was 240 to 243 °C. In the case of `N#CCSc1nc2ccc(Cl)nc2s1`, the melting point is reported as 112 to 114 °C. With `O=C(O)C=Cc1cc(=O)c(OCc2ccccc2)c[nH]1` the melting point was 236 °C. With `CC(C)C(=O)Oc1c(-c2ccc(-c3ccccc3)cc2)nc2ccc(F)cc2c1C(=O)O` the melting point was 201 to 204 °C. In the case of `COc1cc(C(=O)NS(=O)(=O)c2ccccc2)ccc1CBr`, the melting point is reported as 159 to 160 °C.

Source: a melting point compilation (Tetko et al.; mined from patent text by program, amines drawn as free bases though some values may be those of a salt)
